Test results taken from patent US5922683A, “Multicyclic erythromycin derivatives” (Abbott Laboratories, priority 1998, dated 1999).

Key:
ESCHERICHA COLI SS = assay: In vitro antibacterial activity (agar dilution MIC); type: cell-based; conditions: BHI agar, 35-37° C., 20 to 24 hours
Method: (§1) Representative compounds of the present invention were assayed in vitro for antibacterial activity as follows: Twelve petri dishes containing successive aqueous dilutions of the test compound mixed with 10 mL of sterilized Brain Heart Infusion (BHI) agar (Difco 0418-01-5) were prepared. Each plate was inoculated with 1:100 (or 1:10 for slow-growing strains, such as Micrococcus and Streptococcus) dilutions of up to 32 different microorganisms, using a Steers replicator block. The inoculated plates were incubated at 35-37° C. for 20 to 24 hours. In addition, a control plate, using BHI agar containing no test compound, was prepared and incubated at the beginning and end of each test.
(§2) An additional plate containing a compound having known susceptibility patterns for the organisms being tested and belonging to the same antibiotic class as the test compound was also prepared and incubated as a further control, as well as to provide test-to-test comparability. Erythromycin A was used for this purpose.
(§3) After incubation, each plate was visually inspected. The minimum inhibitory concentration (MIC) was defined as the lowest concentration of drug yielding no growth, a slight haze, or sparsely isolated colonies on the inoculum spot as compared to the growth control.

ESCHERICHIA COLI DC-2 = assay: as above; type: cell-based; conditions: BHI agar, 35-37° C., 20 to 24 hours
Method: as §1, §2, §3

ESCHERICHIA COLI JUHL = assay: as above; type: cell-based; conditions: BHI agar, 35-37° C., 20 to 24 hours
Method: as §1, §2, §3

[1] = tested on: MYCOBACTERIUM SMEGMATIS ATCC 114; assay: as above; type: cell-based; conditions: BHI agar, 35-37° C., 20 to 24 hours
Method: as §1, §2, §3

N. ASTEROIDES ATCC 9970 = assay: as above; type: cell-based; conditions: BHI agar, 35-37° C., 20 to 24 hours
Method: as §1, §2, §3

[2] = tested on: STAPHYLOCOCCUS AUREUS 1775; assay: as above; type: cell-based; conditions: BHI agar, 35-37° C., 20 to 24 hours
Method: as §1, §2, §3

[3] = tested on: STAPHYLOCOCCUS AUREUS A-5278; assay: as above; type: cell-based; conditions: BHI agar, 35-37° C., 20 to 24 hours
Method: as §1, §2, §3

[4] = tested on: STAPHYLOCOCCUS AUREUS A5177; assay: as above; type: cell-based; conditions: BHI agar, 35-37° C., 20 to 24 hours
Method: as §1, §2, §3

[5] = tested on: STAPHYLOCOCCUS AUREUS ATCC 6538P; assay: as above; type: cell-based; conditions: BHI agar, 35-37° C., 20 to 24 hours
Method: as §1, §2, §3

[6] = tested on: STAPHYLOCOCCUS AUREUS CMX 553; assay: as above; type: cell-based; conditions: BHI agar, 35-37° C., 20 to 24 hours
Method: as §1, §2, §3

[7] = tested on: STAPHYLOCOCCUS AUREUS CMX 642A; assay: as above; type: cell-based; conditions: BHI agar, 35-37° C., 20 to 24 hours
Method: as §1, §2, §3

[8] = tested on: STAPHYLOCOCCUS AUREUS NCTC10649M; assay: as above; type: cell-based; conditions: BHI agar, 35-37° C., 20 to 24 hours
Method: as §1, §2, §3

[9] = tested on: STAPHYLOCOCCUS EPIDERMIDIS 3519; assay: as above; type: cell-based; conditions: BHI agar, 35-37° C., 20 to 24 hours
Method: as §1, §2, §3

[10] = tested on: STREPTOCOCCUS BOVIS A-5169; assay: as above; type: cell-based; conditions: BHI agar, 35-37° C., 20 to 24 hours
Method: as §1, §2, §3

[11] = tested on: STREPTOCOCCUS PYOGENES EES61; assay: as above; type: cell-based; conditions: BHI agar, 35-37° C., 20 to 24 hours
Method: as §1, §2, §3

STR[…] 930 = assay: as above; type: cell-based; conditions: BHI agar, 35-37° C., 20 to 24 hours
Method: as §1, §2, §3

STR[…] PIU 2548 = assay: as above; type: cell-based; conditions: BHI agar, 35-37° C., 20 to 24 hours
Method: as §1, §2, §3

CANDIDA ALBICANS CCH 442 = assay: In vitro antimicrobial activity (agar dilution MIC); type: cell-based; conditions: BHI agar, 35-37° C., 20 to 24 hours
Method: as §1, §2, §3

Gram-negative bacteria = conditions: cited from earlier work

Row | SMILES | minimum inhibitory concentration (MIC) (ESCHERICHA COLI SS) | minimum inhibitory concentration (MIC) (ESCHERICHIA COLI DC-2) | minimum inhibitory concentration (MIC) (ESCHERICHIA COLI JUHL) | minimum inhibitory concentration (MIC) [1] | minimum inhibitory concentration (MIC) (N. ASTEROIDES ATCC 9970) | minimum inhibitory concentration (MIC) [2] | minimum inhibitory concentration (MIC) [3] | minimum inhibitory concentration (MIC) [4] | minimum inhibitory concentration (MIC) [5] | minimum inhibitory concentration (MIC) [6] | minimum inhibitory concentration (MIC) [7] | minimum inhibitory concentration (MIC) [8] | minimum inhibitory concentration (MIC) [9] | minimum inhibitory concentration (MIC) [10] | minimum inhibitory concentration (MIC) [11] | minimum inhibitory concentration (MIC) (STR[…] 930) | minimum inhibitory concentration (MIC) (STR[…] PIU 2548) | minimum inhibitory concentration (MIC) (CANDIDA ALBICANS CCH 442) | activity against Gram-negative bacteria (Gram-negative bacteria)
1 | CC[C@H]1OC(=O)[C@H](C)C(=O)[C@H](C)[C@@H](O[C@@H]2O[C@H](C)C[C@H](N(C)C)[C@H]2O)[C@](C)(OC)C[C@@H](C)C2=Nc3cccnc3N3C(=O)O[C@@]1(C)[C@H]3[C@H]2C [Ex 7] | 0.78 | > 100 | > 100 | 3.1 | 0.1 | > 100 | > 100 | 0.39 | 0.39 | 0.39 | 0.39 | 0.39 | 0.39 | 0.05 | 0.05 | > 100 | 0.39 | > 100 | 
2 | CC[C@H]1OC(=O)[C@H](C)C(=O)[C@H](C)[C@@H](O[C@@H]2O[C@H](C)C[C@H](N(C)C)[C@H]2O)[C@](C)(OC)C[C@@H](C)C2=Nc3cc(OC)ccc3N3C(=O)O[C@@]1(C)[C@H]3[C@H]2C [Ex 5] | 50 | > 100 | > 100 | 1.56 | 0.2 | > 100 | > 100 | 0.78 | 0.78 | 0.78 | 0.78 | 0.78 | 0.78 | 0.02 | 0.02 | > 100 | 0.39 | > 100 | 
3 | CC[C@H]1OC(=O)[C@H](C)[C@@H](O[C@H]2C[C@@](C)(OC)[C@@H](O)[C@H](C)O2)[C@H](C)[C@@H](O[C@@H]2O[C@H](C)C[C@H](N(C)C)[C@H]2O)[C@](C)(O)C[C@@H](C)C(=O)[C@H](C)[C@@H](O)[C@]1(C)O [Ery A, Erythromycin A] |  |  |  |  |  |  |  |  |  |  |  |  |  |  |  |  |  |  | only weak activity
4 | CC[C@H]1OC(=O)[C@H](C)C(=O)[C@H](C)[C@@H](O[C@@H]2O[C@H](C)C[C@H](N(C)C)[C@H]2O)[C@](C)(OC)C[C@@H](C)C2Nc3ccccc3N3C(=O)O[C@@]1(C)[C@H]3[C@H]2C (single isomer, unassigned) [Ex 3] | 100 | > 100 | > 100 |  |  | > 100 | > 100 | 25 | 25 |  |  |  |  | 1.56 | 3.1 | > 100 | 25 | > 100 | 
5 | C=CCO[C@]1(C)C[C@@H](C)C2=Nc3ccccc3N3C(=O)O[C@](C)([C@@H](CC)OC(=O)[C@H](C)C(=O)[C@H](C)[C@H]1O[C@@H]1O[C@H](C)C[C@H](N(C)C)[C@H]1O)[C@H]3[C@H]2C [Ex 8] | 12.5 | > 100 | > 100 |  | 3.1 | > 100 | > 100 | 0.78 | 0.78 | 0.78 | 0.78 | 0.78 |  | 0.1 | 0.39 | > 100 | 0.78 | > 100 | 
6 | CC[C@H]1OC(=O)[C@H](C)C(=O)[C@H](C)[C@@H](O[C@@H]2O[C@H](C)C[C@H](N(C)C)[C@H]2O)[C@](C)(OC)C[C@@H](C)C2=Nc3cc(C)ccc3N3C(=O)O[C@@]1(C)[C@H]3[C@H]2C [Ex 4] | 0.2 | > 100 | > 100 | 100 | 0.1 |  | > 100 | 0.78 | 0.78 |  | 0.78 | 0.78 |  |  |  | > 100 | 0.2 | > 100 | 
7 | CC[C@H]1OC(=O)[C@H](C)C(=O)[C@H](C)[C@@H](O[C@@H]2O[C@H](C)C[C@H](N(C)C)[C@H]2O)[C@](C)(OC)C[C@@H](C)C2=Nc3ccccc3N3C(=O)O[C@@]1(C)[C@H]3[C@H]2C [Ex 2] | 1.56 | > 100 | > 100 | 3.1 | 0.39 | > 100 | > 100 | 0.39 | 0.39 | 0.39 | 0.39 | 0.39 | 0.39 | 0.1 | 0.1 | > 100 | 0.39 | > 100 | 
8 | CC[C@H]1OC(=O)[C@H](C)C(=O)[C@H](C)[C@@H](O[C@@H]2O[C@H](C)C[C@H](N(C)C)[C@H]2O)[C@](C)(OC)C[C@@H](C)C2=Nc3cc(C#N)ccc3N3C(=O)O[C@@]1(C)[C@H]3[C@H]2C [Ex 6] | 3.1 | > 100 | > 100 | 0.1 | 0.39 | > 100 | > 100 |  | 0.39 | 0.39 | 0.39 | 0.39 | 0.2 |  |  | > 100 | 0.39 | > 100 | 
